Activity calls are given as the source filed them.
Tests used:
[1] = target: T1, Leucine aminopeptidase (Plasmodium falciparum 3D7, UniProt Q8IL11); experiment: P. falciparum M17LAP inhibitors, primary screen, biochemical, fluorogenic H-Leu-NHMec substrate, 1536-well (AID 1619); type: functional
T1 sequence (Q8IL11 whole entry): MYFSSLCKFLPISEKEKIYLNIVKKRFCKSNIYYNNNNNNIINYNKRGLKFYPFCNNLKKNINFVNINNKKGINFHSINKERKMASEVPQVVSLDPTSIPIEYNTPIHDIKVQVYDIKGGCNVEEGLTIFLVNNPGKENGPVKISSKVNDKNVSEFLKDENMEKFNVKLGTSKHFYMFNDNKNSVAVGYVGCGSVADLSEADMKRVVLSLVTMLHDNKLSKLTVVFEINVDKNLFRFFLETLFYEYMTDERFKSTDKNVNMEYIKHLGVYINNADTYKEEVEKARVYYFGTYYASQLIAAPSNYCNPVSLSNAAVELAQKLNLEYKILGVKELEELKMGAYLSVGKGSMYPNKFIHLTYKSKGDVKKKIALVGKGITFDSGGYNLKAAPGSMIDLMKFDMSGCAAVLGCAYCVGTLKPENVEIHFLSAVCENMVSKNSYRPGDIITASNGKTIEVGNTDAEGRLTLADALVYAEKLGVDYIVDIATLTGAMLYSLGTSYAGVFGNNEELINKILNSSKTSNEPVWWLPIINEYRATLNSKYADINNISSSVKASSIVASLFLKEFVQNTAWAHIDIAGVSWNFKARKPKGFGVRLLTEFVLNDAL

[2] = target: T2, RNA-binding protein pos-1 (Caenorhabditis elegans, UniProt G5EF15); experiment: disruptors of C. elegans POS-1 RNA interaction – biochemical, fluorescence polarization, dose response (AID 1964);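 also: purified POS-1 fused to maltose binding protein made in E. coli; potency of compounds blocking POS-1 binding to fluorescent RNA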
T2 sequence (G5EF15 whole entry): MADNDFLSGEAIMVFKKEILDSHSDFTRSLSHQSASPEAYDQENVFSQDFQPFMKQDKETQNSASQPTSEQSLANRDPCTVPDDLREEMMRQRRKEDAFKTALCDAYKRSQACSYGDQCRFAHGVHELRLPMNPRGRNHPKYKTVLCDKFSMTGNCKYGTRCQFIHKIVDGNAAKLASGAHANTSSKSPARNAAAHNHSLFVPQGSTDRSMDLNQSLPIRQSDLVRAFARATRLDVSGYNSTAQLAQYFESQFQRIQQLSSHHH

[3] = target: T3, Zinc finger protein mex-5 (Caenorhabditis elegans, UniProt Q9XUB2); experiment: potency of MEX-5 RNA-binding blockers – biochemical, C. elegans, fluorescence polarization, dose response (AID 1960)
T3 sequence (Q9XUB2 whole entry): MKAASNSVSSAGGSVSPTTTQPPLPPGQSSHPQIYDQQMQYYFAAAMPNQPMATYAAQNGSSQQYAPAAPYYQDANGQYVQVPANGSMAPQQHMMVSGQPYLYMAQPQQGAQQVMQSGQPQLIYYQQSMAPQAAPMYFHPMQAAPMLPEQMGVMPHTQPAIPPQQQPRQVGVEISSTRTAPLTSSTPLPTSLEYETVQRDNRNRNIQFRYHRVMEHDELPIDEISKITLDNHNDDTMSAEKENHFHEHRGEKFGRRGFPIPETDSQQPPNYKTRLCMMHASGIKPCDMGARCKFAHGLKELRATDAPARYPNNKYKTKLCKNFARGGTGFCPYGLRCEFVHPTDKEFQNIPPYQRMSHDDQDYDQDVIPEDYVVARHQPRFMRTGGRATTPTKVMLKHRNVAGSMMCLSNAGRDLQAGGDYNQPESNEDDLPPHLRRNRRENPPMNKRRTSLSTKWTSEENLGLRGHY

[4] = target: DNA dC->dU-editing enzyme APOBEC-3G (Homo sapiens, UniProt Q9HC16); type: functional;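 also: Dose-response counterscreen measuring inhibition of APOBEC3G DNA deaminase activity, run while confirming APOBEC3A inhibitors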
[5] = target: DNA dC->dU-editing enzyme APOBEC-3A (Homo sapiens, UniProt P31941); experiment: Dose Response confirmation of small molecule APOBEC3A DNA Deaminase Inhibitors via a fluorescence-based single-stranded DNA deaminase assay. [Related pubchem assays (depositor defined):AID493011, AID493024]; type: functional
[6] = target: T4, Replicative DNA helicase DnaB (Mycobacterium tuberculosis, UniProt P9WMR3); experiment: DnaB intein splicing inhibitors, dose response, biochemical, cell-free fluorescence (AID 449749); type: functional
T4 sequence (P9WMR3 whole entry): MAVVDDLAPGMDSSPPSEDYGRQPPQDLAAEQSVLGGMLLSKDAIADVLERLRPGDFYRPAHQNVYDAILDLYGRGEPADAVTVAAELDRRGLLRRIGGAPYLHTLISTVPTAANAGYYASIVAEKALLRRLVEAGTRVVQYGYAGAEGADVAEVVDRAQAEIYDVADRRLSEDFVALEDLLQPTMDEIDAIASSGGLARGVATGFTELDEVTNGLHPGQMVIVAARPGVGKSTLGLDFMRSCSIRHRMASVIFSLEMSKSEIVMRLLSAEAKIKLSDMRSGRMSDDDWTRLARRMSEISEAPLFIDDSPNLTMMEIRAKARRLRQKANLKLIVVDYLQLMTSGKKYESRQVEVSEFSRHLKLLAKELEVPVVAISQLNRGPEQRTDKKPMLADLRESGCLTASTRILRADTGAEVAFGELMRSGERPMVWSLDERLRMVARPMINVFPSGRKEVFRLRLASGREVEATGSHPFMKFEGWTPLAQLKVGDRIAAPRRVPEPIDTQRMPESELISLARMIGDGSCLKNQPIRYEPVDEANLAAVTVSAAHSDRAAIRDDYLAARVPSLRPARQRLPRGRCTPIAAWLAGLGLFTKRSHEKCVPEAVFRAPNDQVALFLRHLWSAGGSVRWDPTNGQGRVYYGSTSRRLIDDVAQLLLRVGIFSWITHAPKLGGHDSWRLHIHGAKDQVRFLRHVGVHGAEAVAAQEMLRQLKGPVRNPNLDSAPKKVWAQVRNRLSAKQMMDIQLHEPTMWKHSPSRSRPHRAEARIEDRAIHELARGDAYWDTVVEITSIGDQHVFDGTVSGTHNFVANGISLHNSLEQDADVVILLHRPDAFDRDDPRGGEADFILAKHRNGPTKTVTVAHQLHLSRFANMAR

[7] = fluconazole-exposed Candida albicans growth modulators – fluorescence, retest, confirmation (AID 2467); type: functional, cell-based
[8] = Intein inhibitors as potential Tuberculosis drugs, a cytotoxicity screen. [Related pubchem assays (depositor defined):AID2221, AID2223, AID434968, AID435010, AID449749, AID449750, AID489010]; type: functional
[9] = NIH-3T3 fibroblast cytotoxicity, dose response, cytotoxicity control, cell-based, fluorescence, Alamar Blue, secondary assay (AID 2327); type: functional;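 also: NIH-3T3 mouse fibroblasts cultured with fluconazole at 8 µg/mL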
[10] = non-specific 3'UTR reporter inhibition in Clone20-Shn3RL – cell-based, Renilla luciferase, cherry-picked, counter-screen for Shn3 inhibitor project, dose response (AID 624133); type: functional
[11] = loss of viability in HepG2 cells – cell-based, CellTiter-Glo, cherry-picked, cytotoxicity control for Shn3 inhibitor project, dose response (AID 624134); type: functional
[12] = target: Cytochrome P450 2C9 (Homo sapiens, UniProt P11712)
[13] = reduction of Shn3 3'UTR-driven luciferase in osteoblasts – cell-based, Clone20 osteoblasts, firefly luciferase, cherry-picked, dose response (AID 624132); type: functional;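 also: firefly luciferase luminescence from reporter carrying the Shn3 3'UTR in osteoblasts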
[14] = target: T5, Protein RecA (Mycobacterium tuberculosis, UniProt P9WHJ3); experiment: Fluorescence Cell-Free Homogeneous Dose Retest to Identify Inhibitors of RecA-Intein Splicing Activity. [Related pubchem assays (depositor defined):AID2097, AID2223, AID489010, AID492950]; type: functional
T5 sequence (P9WHJ3 whole entry): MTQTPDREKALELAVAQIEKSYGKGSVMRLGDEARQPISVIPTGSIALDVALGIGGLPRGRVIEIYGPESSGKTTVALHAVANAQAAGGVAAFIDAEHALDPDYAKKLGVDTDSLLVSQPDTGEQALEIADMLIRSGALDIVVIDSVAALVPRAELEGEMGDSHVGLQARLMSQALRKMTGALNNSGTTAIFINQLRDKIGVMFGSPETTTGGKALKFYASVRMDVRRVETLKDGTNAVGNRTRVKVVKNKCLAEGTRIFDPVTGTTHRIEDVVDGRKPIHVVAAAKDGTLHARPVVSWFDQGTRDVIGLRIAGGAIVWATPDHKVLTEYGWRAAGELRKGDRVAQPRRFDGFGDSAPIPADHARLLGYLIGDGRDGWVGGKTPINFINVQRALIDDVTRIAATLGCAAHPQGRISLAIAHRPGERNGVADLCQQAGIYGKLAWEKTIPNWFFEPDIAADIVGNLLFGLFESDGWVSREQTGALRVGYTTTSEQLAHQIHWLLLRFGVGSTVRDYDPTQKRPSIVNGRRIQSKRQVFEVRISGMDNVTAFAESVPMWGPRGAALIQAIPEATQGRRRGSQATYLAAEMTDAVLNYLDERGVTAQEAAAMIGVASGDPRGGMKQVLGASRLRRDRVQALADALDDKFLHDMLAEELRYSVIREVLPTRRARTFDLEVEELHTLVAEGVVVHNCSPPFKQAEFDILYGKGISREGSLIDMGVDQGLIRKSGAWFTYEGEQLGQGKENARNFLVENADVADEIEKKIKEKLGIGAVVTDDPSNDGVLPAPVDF

[15] = target: Heat shock protein HSP 90-alpha (Homo sapiens, UniProt P07900); type: functional, organism-based
[16] = target: FAD-linked sulfhydryl oxidase ALR (Homo sapiens, UniProt P55789); experiment: ALR-catalysed DTT oxidation blockers – biochemical, H2O2 detection, luminescence, cherry-pick, dose response (AID 493248)
[17] = target: T6, SUMO-activating enzyme (Homo sapiens, UniProt Q9UBT2); experiment: blockers of UBC9-mediated SUMO conjugation – biochemical, AlphaScreen, SUMOylation inhibitor project, confirmation (AID 2018); type: functional
[18] = target: T6, SUMO-activating enzyme; experiment: blockers of SAE1/SAE2–UBC9 SUMO transfer – biochemical, HTRF, uHTS, primary screen (AID 2006); type: protein-complex assay
[19] = target: Large T antigen (Simian virus 40, UniProt P03070); type: functional, Betapolyomavirus macacae;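 also: Confirmatory-stage PubChem screen for compounds that inhibit SV40 T antigen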
[20] = Trypanosoma cruzi growth suppression in host cells – NIH3T3 host cells, beta-gal luminescence, confirmation (AID 2044); type: functional, cell-based;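 also: intracellular parasites grown in NIH/3T3 mouse fibroblasts as host cells; luminescent beta-galactosidase reporter signal from transgenic T. cruzi replicating inside host cells; inhibitors lower the luminescence signal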
[21] = NIH3T3 cell viability loss – ATP luminescence, mouse fibroblasts, counter-screen, dose response (AID 2010); type: functional, cell-based;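 also: cells exposed to compound for about 90 hours before reading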
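For CC50 in this document: cells exposed to compound for 72 hours before luminescence readout.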

Sequence of DNA dC->dU-editing enzyme APOBEC-3A (P31941 whole entry): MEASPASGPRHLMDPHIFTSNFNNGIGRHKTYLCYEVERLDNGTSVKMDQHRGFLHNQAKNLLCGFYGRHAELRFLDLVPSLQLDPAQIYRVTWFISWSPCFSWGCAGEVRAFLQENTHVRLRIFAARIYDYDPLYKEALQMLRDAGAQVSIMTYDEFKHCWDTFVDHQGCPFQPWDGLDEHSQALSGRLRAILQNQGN
Sequence of DNA dC->dU-editing enzyme APOBEC-3G (Q9HC16 whole entry): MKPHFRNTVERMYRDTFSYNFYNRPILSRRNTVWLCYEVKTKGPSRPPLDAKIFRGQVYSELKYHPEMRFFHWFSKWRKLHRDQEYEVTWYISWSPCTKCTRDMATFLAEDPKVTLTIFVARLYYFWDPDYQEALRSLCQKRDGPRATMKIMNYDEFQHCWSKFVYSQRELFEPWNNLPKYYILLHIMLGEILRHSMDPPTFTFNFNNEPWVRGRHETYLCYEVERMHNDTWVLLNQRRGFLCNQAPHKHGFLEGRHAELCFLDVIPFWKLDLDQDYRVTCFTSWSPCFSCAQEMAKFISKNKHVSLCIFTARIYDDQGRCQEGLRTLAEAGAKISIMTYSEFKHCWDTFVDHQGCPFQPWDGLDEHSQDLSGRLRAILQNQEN
T6 sequence (Q9UBE0 whole entry): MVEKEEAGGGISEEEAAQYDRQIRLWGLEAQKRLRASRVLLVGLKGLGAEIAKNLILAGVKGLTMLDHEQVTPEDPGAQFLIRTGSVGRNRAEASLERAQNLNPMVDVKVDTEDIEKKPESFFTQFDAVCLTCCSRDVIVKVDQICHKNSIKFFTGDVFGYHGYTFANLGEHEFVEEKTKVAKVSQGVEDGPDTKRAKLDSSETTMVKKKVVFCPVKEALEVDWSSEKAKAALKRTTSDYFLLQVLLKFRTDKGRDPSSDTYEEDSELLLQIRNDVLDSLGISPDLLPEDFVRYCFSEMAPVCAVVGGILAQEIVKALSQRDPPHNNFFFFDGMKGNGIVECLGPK
T6 sequence (Q9UBT2 whole entry): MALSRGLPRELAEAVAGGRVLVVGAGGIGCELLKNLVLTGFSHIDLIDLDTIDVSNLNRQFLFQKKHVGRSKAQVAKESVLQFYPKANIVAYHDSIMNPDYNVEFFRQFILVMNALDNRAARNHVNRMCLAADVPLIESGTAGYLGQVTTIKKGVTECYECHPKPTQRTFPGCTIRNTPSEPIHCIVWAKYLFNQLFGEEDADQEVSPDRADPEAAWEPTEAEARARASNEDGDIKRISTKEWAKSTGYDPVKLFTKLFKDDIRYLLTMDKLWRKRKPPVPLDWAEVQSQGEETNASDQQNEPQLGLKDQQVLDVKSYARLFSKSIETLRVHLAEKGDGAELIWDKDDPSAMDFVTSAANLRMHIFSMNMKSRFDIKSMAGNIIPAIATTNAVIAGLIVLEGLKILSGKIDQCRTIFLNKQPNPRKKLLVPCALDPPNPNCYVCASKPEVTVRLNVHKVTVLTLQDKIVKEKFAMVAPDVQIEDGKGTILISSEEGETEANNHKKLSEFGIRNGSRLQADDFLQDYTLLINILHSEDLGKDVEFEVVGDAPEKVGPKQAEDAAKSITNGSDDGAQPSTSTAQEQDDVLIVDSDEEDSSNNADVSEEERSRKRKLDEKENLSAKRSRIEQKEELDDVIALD
Sequence of FAD-linked sulfhydryl oxidase ALR (P55789 whole entry): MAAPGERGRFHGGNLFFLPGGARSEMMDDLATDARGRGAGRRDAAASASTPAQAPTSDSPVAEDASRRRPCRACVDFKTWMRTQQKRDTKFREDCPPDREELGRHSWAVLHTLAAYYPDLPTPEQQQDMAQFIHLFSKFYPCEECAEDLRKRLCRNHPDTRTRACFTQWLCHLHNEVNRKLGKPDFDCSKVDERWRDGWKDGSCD
Sequence of Cytochrome P450 2C9 (P11712 whole entry): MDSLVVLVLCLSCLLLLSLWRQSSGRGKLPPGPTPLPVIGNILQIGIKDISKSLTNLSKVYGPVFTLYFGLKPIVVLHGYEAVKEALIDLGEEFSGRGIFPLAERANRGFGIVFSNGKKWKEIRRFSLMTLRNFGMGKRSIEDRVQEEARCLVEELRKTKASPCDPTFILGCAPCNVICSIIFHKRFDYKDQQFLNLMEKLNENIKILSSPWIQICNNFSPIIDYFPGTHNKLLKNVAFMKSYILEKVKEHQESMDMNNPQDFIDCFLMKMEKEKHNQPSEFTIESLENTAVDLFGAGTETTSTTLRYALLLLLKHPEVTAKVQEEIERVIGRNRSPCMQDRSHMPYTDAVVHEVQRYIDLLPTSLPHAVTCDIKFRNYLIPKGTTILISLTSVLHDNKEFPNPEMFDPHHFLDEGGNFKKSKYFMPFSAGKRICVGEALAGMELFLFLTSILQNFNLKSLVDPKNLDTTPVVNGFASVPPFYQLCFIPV
Sequence of Large T antigen (P03070 whole entry): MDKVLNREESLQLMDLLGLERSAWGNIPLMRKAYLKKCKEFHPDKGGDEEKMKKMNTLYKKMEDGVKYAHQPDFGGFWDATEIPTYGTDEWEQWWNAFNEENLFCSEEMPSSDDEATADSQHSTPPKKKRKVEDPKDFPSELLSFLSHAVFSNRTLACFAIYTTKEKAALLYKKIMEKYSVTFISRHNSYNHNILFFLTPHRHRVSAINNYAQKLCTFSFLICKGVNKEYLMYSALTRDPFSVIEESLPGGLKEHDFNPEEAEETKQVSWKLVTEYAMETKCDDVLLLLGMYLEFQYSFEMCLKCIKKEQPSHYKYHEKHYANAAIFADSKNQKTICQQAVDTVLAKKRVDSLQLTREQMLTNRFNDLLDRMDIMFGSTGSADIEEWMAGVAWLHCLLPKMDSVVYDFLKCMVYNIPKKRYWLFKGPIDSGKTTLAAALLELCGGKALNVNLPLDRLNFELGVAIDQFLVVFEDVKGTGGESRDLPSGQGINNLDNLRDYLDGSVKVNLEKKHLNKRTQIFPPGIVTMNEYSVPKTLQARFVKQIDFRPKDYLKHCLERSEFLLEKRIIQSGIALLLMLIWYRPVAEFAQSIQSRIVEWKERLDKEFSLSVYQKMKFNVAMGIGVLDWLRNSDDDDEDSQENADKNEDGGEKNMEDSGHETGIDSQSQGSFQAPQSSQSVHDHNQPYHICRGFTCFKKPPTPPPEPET

O=C(O)c1cccc(-n2cccc2/C=C2/NC(=O)N(Cc3ccccc3F)C2=O)c1
IC50 [1]: 53.2 µM (active) | EC50 [2]: > 300 µM (not active) | EC50 [3]: > 300 µM (not active) | IC50 [4]: 42.9 µM (active) | IC50 [5]: 14.9 µM (active)

CCn1c(C=CN(C(C)=O)c2ccccc2)[n+](CC)c2cc(Cl)ccc21
IC50 [4]: 4.45 µM (active) | IC50 [5]: 2.23 µM (active)

O=C(OCn1ncc(Cl)c(Cl)c1=O)c1cccc(C(F)(F)F)c1
AC50 [6]: 1.44 µM (active) | EC50 [7]: 0.781 µM (active) | CC50 [8]: 8.16 µM (active) | EC50 [9]: 5.31 µM (inconclusive) | AC50 [10]: 7.88 µM (active) | AC50 [11]: 49.7 µM (active) | AC50 [12]: inconclusive | AC50 [13]: 3.74 µM (active) | EC50 [14]: 0.19 µM (active) | AC50 [15]: 4.11 µM (active)

Sc1nnc(-c2ccc(Cl)cc2)n1/N=C/C=C/c1ccco1
AC50 [16]: 1.95 µM (active) | IC50 [17]: 7.66 µM (active) | IC50 [18]: 59.1 µM (active) | IC50 [19]: 69.2 µM (active)

Cc1ccc(OCC(=O)Nc2ccc(S(=O)(=O)N(C)C3CCN(C)CC3)cc2)c(C)c1
EC50 [20]: 0.32 µM (active) | IC50 [4]: 6.95 µM (active) | EC50 [21]: > 60 µM (not active) | IC50 [5]: 3.31 µM (active)

From ChEMBL document CHEMBL1201862, “PubChem BioAssay data set” (2004)
